Laboratory results: publication PMC11025081, “Design, Synthesis, and In Silico and In Vitro Cytotoxic Activities of Novel Isoniazid–Hydrazone Analogues Linked to Fluorinated Sulfonate Esters” (ACS Omega, 2024)

Tests used:
[1] = tested on: human colon cancer cells (DLD-1); assay: MTT cytotoxic activity assay, DLD-1 cells, 72 h; format: cell-based; conditions: DLD-1 cell line
Source text: (§1) Cancer treatment often damages healthy cells and tissues. Every treatment has important and diverse side effects; these depend mainly on the type and extent of treatment, are not the same for everyone, and may even vary from one treatment to another in the same person. While most cancer patients receiving chemotherapy lose hair during the treatment process, other side effects vary depending on the type of drug. Therefore, the discovery of new drugs with side effects lower than those of the chemotherapeutic agents used in treatment has become an important focus of cancer research. In the present study, the cytotoxic activities of new compounds (1–18) and cisplatin were tested in prostate and colon cancer cell lines and healthy embryonic kidney cell line for 72 h.
(§2) The PC3 and DLD-1 cell lines were purchased from the American Type Culture Collection. The PC3, DLD-1, and HEK-293T cells were seeded in 96-well plates at a density of 5 × 10^3 cells/well for cytotoxic activity studies.[36]−[38] Cells were exposed to compounds at concentrations of 300, 150, 75, and 37.5 μM after 24 h. The 50 μL (5 mg/mL) amount of MTT stock solution was added to wells after 72 h and incubated for a further 2 h. The absorbance values were measured by using an Epoch 2 ELISA plate reader at 590 nm.

[2] = tested on: human prostate cancer cells (PC3); assay: MTT cytotoxic activity assay, PC3 cells, 72 h; format: cell-based
Source text: as §1, §2

[3] = tested on: human embryonic kidney cells (HEK-293T); assay: MTT cytotoxic activity assay, HEK-293T healthy cells, 72 h; format: cell-based; conditions: HEK-293T healthy cell line
Source text: as §1
To determine whether all of the prepared substances had selectivity for healthy cells, the compounds were tested against HEK-293T cells at the same concentrations as those applied to cancer cells. […] Changes in the cell viability ratio depending on concentrations of the tested compounds (1–18) and cisplatin are given below (Figure 3).
as §2

[4] = Homo sapiens, PC-3, PC3 cell line

melting point [°C] | SMILES | IC50 ([1]; Homo sapiens) [µM] | IC50 [2, 4] [µM] | IC50 [3] [µM] | IC50 [1] [µM] | IC50 ([2]; PC3 cell line) [µM]
112 to 113 | COc1cc(C=O)ccc1OS(=O)(=O)c1ccc(C(F)(F)F)cc1 [Compound 7] | 74 ± 4.34 | 71.6 ± 3.46 | 110 ± 5.97 | – | –
114 to 116 | CCN(CC)c1ccc(C=O)c(OS(=O)(=O)c2ccc(C(F)(F)F)cc2)c1 [Compound 8] | 24.7 ± 1.9 | 28.8 ± 1.85 | 40.8 ± 5.68 | – | –
129 to 131 | O=Cc1c(OS(=O)(=O)c2ccc(C(F)(F)F)cc2)ccc2ccccc12 [Compound 9] | 17.6 ± 0.62 | 14.8 ± 1.03 | 34.7 ± 2.21 | – | –
83 to 84 | O=Cc1ccccc1OS(=O)(=O)c1ccc(C(F)(F)F)cc1 [Compound 1] | 22.5 ± 2.6 | 14.3 ± 1.87 | 19.5 ± 1.57 | – | –
79 to 80 | O=Cc1cccc(OS(=O)(=O)c2ccc(C(F)(F)F)cc2)c1 [Compound 2] | 41.2 ± 3.94 | 24.5 ± 2.09 | 60 ± 4.81 | – | –
192 to 193 | COc1cc(C=NNC(=O)c2ccncc2)ccc1OS(=O)(=O)c1ccc(C(F)(F)F)cc1 [Compound 16] | 72.8 ± 3.13 | 121 ± 5.71 | 183 ± 2.72 | – | –
208 to 209 | O=C(N/N=C/c1ccc(OS(=O)(=O)c2ccc(C(F)(F)F)cc2)cc1)c1ccncc1 [Compound 12] | > 300 | > 300 | > 300 | – | –
189 to 190 | O=C(NN=Cc1cccc(OS(=O)(=O)c2ccc(C(F)(F)F)cc2)c1)c1ccncc1 [Compound 11] | 144 ± 4.18 | 80.1 ± 4.59 | 245 ± 5.79 | – | –
198 to 199 | COc1cccc(C=NNC(=O)c2ccncc2)c1OS(=O)(=O)c1ccc(C(F)(F)F)cc1 [Compound 13] | 78.8 ± 3.15 | 214 ± 6.48 | > 300 | – | –
180 to 181 | COc1ccc(C=NNC(=O)c2ccncc2)c(OS(=O)(=O)c2ccc(C(F)(F)F)cc2)c1 [Compound 14] | 28.4 ± 2.81 | 16.5 ± 1.54 | 26.6 ± 2.62 | – | –

The next lines start with the compound.

SMILES | melting point [°C] | IC50 ([1]; Homo sapiens) [µM] | IC50 [2, 4] [µM] | IC50 [3] [µM] | IC50 [1] [µM] | IC50 ([2]; PC3 cell line) [µM]
O=C(NN=Cc1c(OS(=O)(=O)c2ccc(C(F)(F)F)cc2)ccc2ccccc12)c1ccncc1 [Compound 18] | – | 37.4 ± 4.63 | 17.05 ± 0.09 | 15.75 ± 0.11 | – | –
COc1ccc(C=NNC(=O)c2ccncc2)cc1OS(=O)(=O)c1ccc(C(F)(F)F)cc1 [Compound 15] | – | 63.8 ± 5.32 | 97.4 ± 4.85 | 166 ± 6.71 | – | –
O=C(NN=Cc1ccccc1OS(=O)(=O)c1ccc(C(F)(F)F)cc1)c1ccncc1 [Compound 10] | – | 17.9 ± 0.51 | 139 ± 5.82 | 52.2 ± 3.52 | – | –
O=Cc1ccc(OS(=O)(=O)c2ccc(C(F)(F)F)cc2)cc1 [Compound 3] | 110 to 111 | 115 ± 5.78 | 76.6 ± 3.55 | 89.26 ± 0.17 | – | –
COc1cccc(C=O)c1OS(=O)(=O)c1ccc(C(F)(F)F)cc1 [Compound 4] | – | 13.5 ± 1.64 | 10.3 ± 0.8 | 35.3 ± 1.15 | – | –
COc1ccc(C=O)cc1OS(=O)(=O)c1ccc(C(F)(F)F)cc1 [Compound 6] | – | 17.8 ± 0.53 | 16 ± 1.71 | 91 ± 2.26 | – | –
CCN(CC)c1ccc(C=NNC(=O)c2ccncc2)c(OS(=O)(=O)c2ccc(C(F)(F)F)cc2)c1 [Compound 17] | 141 to 142 | 110 ± 5.09 | 57.6 ± 1.83 | 132 ± 5.46 | – | –
COc1ccc(C=O)c(OS(=O)(=O)c2ccc(C(F)(F)F)cc2)c1 [Compound 5] | – | 19.3 ± 2.71 | 11.2 ± 0.94 | 38.6 ± 2.81 | – | –
N.N.[Cl][Pt][Cl] [cisplatin, reference compound] | – | – | – | – | 26.7 ± 2.78 | 8.8 ± 0.51
